Results on one molecule are retold here after article PMC6212544, “Identification and Characterization of Novel CFTR Potentiators” (Frontiers in Pharmacology, 2018).

For test [1], the target named is T1, F508del CFTR (Homo sapiens, UniProt P13569, DEL508-508). Kind of test: YFP halide assay, CFBe41o- cells, low temperature rescued F508del CFTR. In kind it is cell-based. The conditions noted are these: 27°C 24 h, 10 μM forskolin, read-out: EC50, potentiation of low temperature rescued F508del CFTR. The protocol: CFBe41o- cells were plated in black 384-well microplates at a density of 1,500 cells per well. After 24 h, cells were transduced with adenoviruses containing F508del CFTR and YFP (H148Q/I152L/) F47L using a multiplicity of infection of 30 infectious units per cell for each adenovirus. The next day, for the low temperature corrected assay, cells were incubated at 27°C for 24 h, for the chemically corrected assay cells were treated with corrector for 24 h at 37°C. On the day of analysis, cells were washed five times with Dulbecco’s Phosphate-Buffered Saline (DPBS) containing Ca^2+ and Mg^2+ (Life Technologies) using a Microplate Washer (BioTek). Then, cells were treated with 10 μM forskolin and the desired concentration of potentiator in a volume of 30 μl and the plates were incubated at room temperature for 10 min, a timepoint optimized in previous experiments showing good window (positive control/negative control > 2) and signal to background ratio. The YFP fluorescence was recorded for 2 min, starting immediately before addition of 30 μl NaI buffer (375 mM NaI, 7.5 mM KI, 1.76 mM KH2PO4, 10.1 mM Na2HPO4, 13.75 mM glucose) to the wells, using a FDSS/μCell (Hamamatsu) fluorescence reader with a 480 nm excitation filter and a 540 nm emission filter. The capacity of potentiators to increase CFTR channel function was expressed as 1-[fluorescence 36 s after NaI addition (F)/fluorescence before NaI addition (F0)], a timepoint optimized previously, resulting in an optimal signal window. Data was normalized using the formula: normalized response = 100^∗ (absolute response – negative control response)/(VX770 response – negative response) as such, VX770 response corresponds to 100. For Dose-response experiments, data was fitted using a 4 parameter hill function of the form Response = Bottom + (Top-Bottom)/(1 + 10ˆ((LogEC50-concentration)^∗HillSlope)) to determine EC50 values.

Test [2] has as its target T1, F508del CFTR. Kind of test: Cell surface expression assay, HRP-tagged F508del CFTR in CFBe41o- cells. In kind it is cell-based. Set-up: expressed in transfected cells. To be noted: 24 h co-incubation with 10 μM VX809, concentration range of potentiator. The protocol:
CFBE41o^- TetON cells expressing HRP tagged F508del-CFTR ([Veit et al., 2012]) were seeded at a density of 4,000 cells per well in white 384-well plates (Greiner). Medium containing 500 ng/ml doxycycline was used to induce expression of the F508del-CFTR–HRP construct. After 3 days, cells were treated with corrector and/or potentiator compounds and transferred to an incubator at 33°C. On day 4, cells were washed 5 times with PBS containing Ca^2+ and Mg^2+ using a Bio-Tek plate washer and incubated with a chemiluminescent HRP substrate (SuperSignal West Pico Chemiluminescent Substrate, Thermo Scientific) for 15 min. Chemiluminescence was measured using an Envision plate reader (Perkin Elmer).

In a further test the target is T2, G551D CFTR (Homo sapiens, UniProt P13569, G551D).
T2 construct: expressed in transfected cells; host or cells: HEK293, transient (jetPEI)
The conditions noted are these: ref Jih and Hwang (2013); cited from earlier work.

For test [3] the following is noted: patients carrying the G551D mutation; ref Ramsey et al., 2011; cited from earlier work.
Test [4] concerns the target T1, F508del CFTR. Kind of test: TECC on corrector rescued F508del/F508del primary HBE cells. In kind it is cell-based. Also noted: endogenous in cells; host or cells: primary human bronchial epithelial cells, F508del/F508del donors (McGill University; University of North Carolina). The protocol:
Bronchial epithelial cells isolated from transplanted lungs from wild-type (WT), CF patients homozygous for the F508del mutation or heterozygous G551D/F508del or R334W/F508del patients, were obtained from McGill University (Montreal, Canada) and University of North Carolina (Chapel Hill, NC, United States). Cells were isolated from lungs obtained from donors undergoing a planned transplantation. These primary cells were cultured directly on type IV collagen-coated polycarbonate Transwell supports with a diameter of 6.5 mm and pore size of 0.4 μm (Costar, #3397) for 18–25 days in air liquid (ali) interface essentially as previously described ([Fulcher et al., 2005]). Trans-epithelial clamp circuit (TECC) recordings were performed using the TECC instrument developed and sold by EP Design (Bertem, Belgium). During the recording, the epithelial cells were bathed in a NaCl-Ringer solution (120 mM NaCl, 20 mM HEPES, 1.2 mM CaCl2, 1.2 mM MgCl2, 0.8 mM KH2PO4, 0.8 mM K2HPO4, 5 mM glucose, pH 7.4) on both the basolateral (640 μl) and the apical side (160 μl) and kept at 37°C. Apical amiloride was used to inhibit the endogenous ENaC currents (100 μM) while forskolin (10 μM) was applied on both the apical and basolateral sides to stimulate CFTR. All triggers and compounds used during the experiment were first dissolved in DMSO to a 1000 X concentrated solution, just prior to treatment a 10 X stock was prepared in the NaCl-Ringer solution which was used for addition of the correct concentration of trigger and or compound during the experiment. When using the F508del CFTR mutant, VX809 (3 μM) or GLPG2222 (1 μM) corrector was added on the basolateral side for 24 h to partially rescue F508del CFTR before adding the potentiator. For chronic experiments, the potentiator range was also added to the cells for 24 h and reapplied in the NaCl-ringer buffer prior to the electrophysiological recording. Measurements were done during a 20 min timeframe with recordings every 2 min. The transepithelial potential (PD) and transepithelial resistance (Rt) were measured in an open circuit and transformed to Ieq using Ohm’s law. The increase in Ieq (Δ Ieq) was used as a measure for the increased CFTR activity. EC50 values were generated by measuring impact of different concentrations of compound on Ieq in primary cells. For this purpose each transwell was treated with a different compound concentration. CFTRInh-172 was used at 10 μM to assess the specificity of the response. […] Data was fitted using a 3 parameter hill function of the form Response = Bottom + (Top-Bottom)/(1 + 10ˆ((LogEC50-concentration))) to determine EC50 values.

The structures appear in SMILES notation.

T1 sequence (P13569 with tags, fused parts or gaps DEL508-508): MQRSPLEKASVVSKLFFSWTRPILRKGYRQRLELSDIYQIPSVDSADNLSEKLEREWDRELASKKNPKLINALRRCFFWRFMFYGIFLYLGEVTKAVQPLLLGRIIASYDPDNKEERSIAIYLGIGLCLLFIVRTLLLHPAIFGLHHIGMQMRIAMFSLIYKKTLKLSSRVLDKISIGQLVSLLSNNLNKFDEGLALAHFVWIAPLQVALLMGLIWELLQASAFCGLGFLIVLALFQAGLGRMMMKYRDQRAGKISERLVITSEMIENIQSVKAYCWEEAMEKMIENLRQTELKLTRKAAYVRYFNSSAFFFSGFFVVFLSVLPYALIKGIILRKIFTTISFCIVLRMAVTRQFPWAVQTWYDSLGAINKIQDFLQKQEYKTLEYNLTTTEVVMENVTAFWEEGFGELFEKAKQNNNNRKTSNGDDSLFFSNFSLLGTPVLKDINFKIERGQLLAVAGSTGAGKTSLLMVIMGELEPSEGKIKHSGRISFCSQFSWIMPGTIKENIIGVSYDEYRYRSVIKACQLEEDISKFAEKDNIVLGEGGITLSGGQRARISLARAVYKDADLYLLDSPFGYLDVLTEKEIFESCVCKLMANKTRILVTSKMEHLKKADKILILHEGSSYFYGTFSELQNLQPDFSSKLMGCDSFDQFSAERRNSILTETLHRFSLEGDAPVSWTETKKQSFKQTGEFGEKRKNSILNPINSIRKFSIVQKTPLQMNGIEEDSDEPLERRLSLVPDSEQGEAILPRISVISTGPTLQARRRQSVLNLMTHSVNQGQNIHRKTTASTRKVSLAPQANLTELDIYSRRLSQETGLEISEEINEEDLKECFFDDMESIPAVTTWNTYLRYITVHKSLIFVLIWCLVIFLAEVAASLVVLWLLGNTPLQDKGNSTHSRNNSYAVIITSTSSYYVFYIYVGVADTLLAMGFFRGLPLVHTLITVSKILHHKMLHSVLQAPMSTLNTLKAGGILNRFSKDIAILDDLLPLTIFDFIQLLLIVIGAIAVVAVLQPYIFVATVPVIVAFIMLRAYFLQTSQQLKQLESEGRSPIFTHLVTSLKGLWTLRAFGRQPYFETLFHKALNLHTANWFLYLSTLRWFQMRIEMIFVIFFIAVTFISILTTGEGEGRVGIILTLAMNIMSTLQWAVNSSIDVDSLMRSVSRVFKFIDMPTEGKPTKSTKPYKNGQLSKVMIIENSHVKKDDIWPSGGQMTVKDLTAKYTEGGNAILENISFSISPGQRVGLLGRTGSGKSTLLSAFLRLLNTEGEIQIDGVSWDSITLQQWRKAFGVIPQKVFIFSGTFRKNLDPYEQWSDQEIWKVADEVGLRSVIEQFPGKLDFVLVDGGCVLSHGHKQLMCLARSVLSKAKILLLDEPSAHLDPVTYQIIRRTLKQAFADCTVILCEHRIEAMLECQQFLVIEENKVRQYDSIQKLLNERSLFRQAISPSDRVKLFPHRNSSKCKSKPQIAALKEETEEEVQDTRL
T2 sequence (P13569 whole entry G551D): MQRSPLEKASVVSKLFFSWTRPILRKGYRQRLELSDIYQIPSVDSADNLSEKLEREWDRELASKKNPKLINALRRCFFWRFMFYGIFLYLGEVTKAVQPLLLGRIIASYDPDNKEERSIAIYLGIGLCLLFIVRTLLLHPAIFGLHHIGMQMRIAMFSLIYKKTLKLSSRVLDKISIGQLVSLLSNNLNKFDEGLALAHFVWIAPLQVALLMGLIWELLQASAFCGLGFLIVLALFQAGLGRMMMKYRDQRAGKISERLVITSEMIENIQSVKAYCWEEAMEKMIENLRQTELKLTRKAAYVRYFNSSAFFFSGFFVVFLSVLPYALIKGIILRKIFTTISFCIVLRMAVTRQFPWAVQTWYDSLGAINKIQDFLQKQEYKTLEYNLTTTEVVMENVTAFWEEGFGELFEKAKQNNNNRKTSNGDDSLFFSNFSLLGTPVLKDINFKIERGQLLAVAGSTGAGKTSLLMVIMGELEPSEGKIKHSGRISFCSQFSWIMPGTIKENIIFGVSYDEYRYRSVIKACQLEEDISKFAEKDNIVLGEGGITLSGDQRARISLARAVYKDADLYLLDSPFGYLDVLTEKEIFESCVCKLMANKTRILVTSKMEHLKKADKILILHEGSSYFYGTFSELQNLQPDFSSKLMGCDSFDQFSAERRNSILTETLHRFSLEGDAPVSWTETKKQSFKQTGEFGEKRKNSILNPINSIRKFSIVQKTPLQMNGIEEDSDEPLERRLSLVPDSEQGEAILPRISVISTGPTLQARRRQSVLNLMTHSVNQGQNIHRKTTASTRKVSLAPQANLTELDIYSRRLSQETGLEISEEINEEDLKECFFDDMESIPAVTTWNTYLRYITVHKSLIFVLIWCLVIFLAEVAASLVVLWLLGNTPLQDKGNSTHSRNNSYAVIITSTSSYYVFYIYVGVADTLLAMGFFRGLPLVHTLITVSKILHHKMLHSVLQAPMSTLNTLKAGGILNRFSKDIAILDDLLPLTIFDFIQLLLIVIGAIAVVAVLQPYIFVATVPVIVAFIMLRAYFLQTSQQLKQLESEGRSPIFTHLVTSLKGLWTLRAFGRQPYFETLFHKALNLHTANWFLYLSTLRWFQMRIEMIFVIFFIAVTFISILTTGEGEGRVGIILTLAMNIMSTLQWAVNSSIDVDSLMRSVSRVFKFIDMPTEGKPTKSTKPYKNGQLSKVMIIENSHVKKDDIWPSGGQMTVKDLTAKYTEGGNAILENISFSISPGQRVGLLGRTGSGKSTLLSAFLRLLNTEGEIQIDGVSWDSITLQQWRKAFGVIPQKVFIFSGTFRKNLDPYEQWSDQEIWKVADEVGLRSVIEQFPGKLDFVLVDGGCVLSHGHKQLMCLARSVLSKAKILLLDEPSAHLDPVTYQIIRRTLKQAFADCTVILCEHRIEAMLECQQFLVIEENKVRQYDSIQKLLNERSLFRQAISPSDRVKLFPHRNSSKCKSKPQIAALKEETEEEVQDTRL

For the molecule `CC(C)(C)c1cc(C(C)(C)C)c(NC(=O)c2c[nH]c3ccccc3c2=O)cc1O` [VX770, N -(2,4-Di-tert-butyl-5-hydroxyphenyl)-4-oxo-1,4-dihydroquinoline-3-carboxamide, reference compound], the EC50 came to 126 ± 10.9 nM on F508del CFTR [1] and 80.7 ± 21.7 nM on F508del CFTR [4] (VX809 3 μM 24 h, acute potentiator addition, 10 μM forskolin, read-out: EC50 on VX809 corrected F508del/F508del HBEs (TECC)). In addition, the “Effect on cell surface expression of VX809 rescued F508del CFTR” value on F508del CFTR [2] is given as “reduces the level of cell surface expressed F508del CFTR at all concentrations tested”. The “Increase of macroscopic G551D CFTR current” value on G551D CFTR is recorded as 10 fold. Moreover, the “Improvement of lung function” value in test [3] is 10.6%. Moreover, the “Decrease in corrected F508del CFTR channel activity in chronic versus acute setting” value on F508del CFTR [4] (10 μM potentiator, corrected F508del/F508del HBE, 24 h) was “decrease in F508del CFTR channel activity”.
